# Data as given in publication PMC12389269, “Heteroaryl-Capped Hydroxamic Acid Derivatives with Varied Linkers: Synthesis and Anticancer Evaluation with Various Apoptosis Analyses in Breast Cancer Cells, Including Docking, Simulation, DFT, and ADMET Studies” (Pharmaceuticals, 2025).
# Entries after “also recorded” stand apart in the source; their conditions may differ.
# Legend:
# HEK-293 cells = test: MTT cytotoxicity assay, normal cell line HEK-293; type: cell-based
# Experimental: (§1) Following an extensive review of the literature, we selected human breast cancer (MCF-7, MDA-MB-231) and lung cancer (A549) cell lines to evaluate the anticancer potential of the synthesized compounds, and some compounds with good anti-proliferation activity were again tested to evaluate their cytotoxic potential on A-549, MCF-7, and MDA-MB-231. The same were also tested on one non-cancerous/normal (HEK-293) cell line. All the cell lines for the required screening were developed in a suitable medium comprising 10% FBS and 2mM L-glutamine. Cancerous and non-cancerous/normal cell lines were selected for the cell proliferation and cytotoxicity assay and maintained with 5% CO2 at 37 °C in a CO2 incubator with 100% relative humidity for one complete day before the addition of experimental drugs.
# (§2) MTT, a well-known colorimetric cytotoxic assay was performed to validate the cytotoxicity of the selected compounds—VI(b), VI(c), VI(e), and VI(i)—against three different human tumor cell lines [MCF-7, MDA-MB-231, A549] and a normal cell line [HEK293]. The seeding of 1 × 10^4 cells onto each well was executed in a 96-well plate in triplicate, and to keep the cells viable, overnight incubation was undertaken at 37 °C with 5% CO2 in a CO2 incubator. […] The microplate reader was set at 570 nm to measure the absorbance of each well.
# MCF-7 cells [1] = test: MTT cytotoxicity assay, MCF-7; type: cell-based; conditions: Homo sapiens, MCF7, MCF-7, 24 h
# Experimental: as §1, §2
# [2] = tested on: A-549 (Human Lung Cancer Cell Line); test: SRB antiproliferative assay, A-549; type: cell-based; conditions: Homo sapiens, A549, A-549, 48 h, read-out: GI50
# Experimental: as §1
# (§3) Antiproliferative activity through an SRB assay was performed for all the synthesized compounds on A-549 and MCF-7 cell lines. Around 5000 cells/well were quarantined into a 96-well microtiter plate in 100 μL. The synthesized compounds were solubilized in DMSO and diluted to different concentrations before use. The final-drug-concentration aliquots were poured into microtiter wells, and the plates were incubated for 48 h in regular conditions. After adding the final drug concentration, the cells were allowed to set in place and incubated for 60 min. A total of 50 µL of SRB solution (0.4% w/v) in 1% CH3COOH was poured into each well. The plates were then incubated for 20 min at RT. During subsequent staining, the unbounded dye was removed, and the plate reader recorded the eluted bound stain at 540 nm with a 690 nm reference wavelength. The assay was performed precisely using the appropriate reagents and reaction situation, as per the reported procedure. ADR was selected as the reference drug.
# [3] = tested on: MCF-7 (Human Breast Cancer Cell Line); test: SRB antiproliferative assay, MCF-7; type: cell-based; conditions: Homo sapiens, MCF7, MCF-7, 48 h, read-out: GI50
# Experimental: as §1, §3
# HDAC1 = target: T1, HDAC1 (Homo sapiens, UniProt Q13547); test: HDAC inhibition assay (color de lys ELISA kit), HDAC1; type: biochemical; conditions: HeLa nuclear extract as source of HDAC activity
# T1 construct: The HeLa nuclear extract was used as a source of HDAC activity; host or cells: HeLa (nuclear extract / cells)
# Experimental: SAHA served as the assay’s positive control. The HeLa nuclear extract was used as a source of HDAC activity. The trypsinized HeLa cells were tallied, put into 96-well microtiter plates, and nurtured. Samples and the standard were placed in wells at a concentration of 100 µL. The culture environment was maintained as per the procedure. 3,3′,5,5′-tetramethylbenzidine (TMB) was included for visualization. Finally, 50 µL of halt solution was smeared. The samples and different SAHA concentrations (0.01, 0.1, 1, 10 μM) were introduced to the appropriate well and left for 72 h. BioTek Epoch (Winooski, VT, USA) microplate reader was used to quantify optical density at 450 nm. The Graph Pad Prism 5 helped to determine the IC50 values.
# MCF-7 cells [4] = test: Cell cycle analysis, propidium iodide flow cytometry; type: cell-based, human
# Experimental: Apoptosis can also be determined based on the content of the DNA allocation at different stages of cell cycle distribution. The cultured MCF-7 cell line was washed, trypsinized, and seeded, followed by compound VI(i) exposure in a 6-well cell culture plate. Following this, cells were harvested using 1mM EDTA; then, to fix the cells, ice-cold ethanol was used, and overnight, cells were kept at −20 °C. Afterwards, cells were maintained at room temperature, followed by centrifugation at 3000 RPM for 7 min. Then, staining was conducted using propidium iodide, RNase A, and Triton-X in a buffer (phosphate-buffered saline). It was then analyzed using a flow cytometer.
# [5] = MCF-7, IC50 concentration (60 µg/mL)
# [6] = MCF-7, higher concentration (80 µg/mL)
# [7] = MCF-7, lower concentration (40 µg/mL)
# T1 sequence (Q13547 whole entry): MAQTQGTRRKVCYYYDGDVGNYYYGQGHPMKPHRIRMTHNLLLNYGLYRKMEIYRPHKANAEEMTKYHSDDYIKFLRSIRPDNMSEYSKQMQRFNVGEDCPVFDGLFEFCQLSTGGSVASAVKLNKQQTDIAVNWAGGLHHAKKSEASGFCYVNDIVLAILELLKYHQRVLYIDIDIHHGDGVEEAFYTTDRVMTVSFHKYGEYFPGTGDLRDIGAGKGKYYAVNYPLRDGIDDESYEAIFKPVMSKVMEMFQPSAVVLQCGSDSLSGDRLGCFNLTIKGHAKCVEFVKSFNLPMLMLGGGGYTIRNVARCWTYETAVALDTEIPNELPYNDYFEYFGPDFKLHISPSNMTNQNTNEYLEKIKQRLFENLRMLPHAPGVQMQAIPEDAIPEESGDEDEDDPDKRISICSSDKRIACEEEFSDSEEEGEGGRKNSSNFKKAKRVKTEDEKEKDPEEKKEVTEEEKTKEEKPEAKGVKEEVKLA
smiles,measurement,setting,value
"COc1ccc(-c2cnn(CCCCCC(=O)NO)n2)cc1 [VI(i), N-Hydroxy-6-(4-(4-methoxyphenyl)-2H-1,2,3-triazol-2-yl)hexanamide]",toxicity towards normal cell line,HEK-293 cells,low toxicity; also recorded: somewhat minimal toxicity
same,IC50,MCF-7 cells [1],60 µg/mL
same,GI50,[2],< 10 µg/mL
same,GI50,[3],< 10 µg/mL
same,IC50,HDAC1,10.1 µM
same,increase in cells arrested in G2/M phase compared to control,MCF-7 cells [4]; [5],15.91%
same,increase in cells arrested in S phase compared to control,MCF-7 cells [4]; [5],6.9%
same,increase in cells arrested in G2/M phase compared to control,MCF-7 cells [4]; [6],19.35%
same,increase in cells arrested in S phase compared to control,MCF-7 cells [4]; [6],6.07%
same,increase in cells arrested in G2/M phase compared to control,MCF-7 cells [4]; [7],11.98%
same,increase in cells arrested in S phase compared to control,MCF-7 cells [4]; [7],5.92%
